Test results as given in publication PMC10035947, “Development of novel anilinoquinazoline-based carboxylic acids as non-classical carbonic anhydrase IX and XII inhibitors” (Journal of Enzyme Inhibition and Medicinal Chemistry, 2023).

Legend:
DU-145 = test: NCI SRB assay; type: cell-based, human
hCA IX = target: T1, hCA IX (Homo sapiens, UniProt Q16790); test: stopped flow CO2 hydrase assay; type: biochemical
T1 construct: made in house
Procedure, shortened: (§1)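 Recombinant enzymes assayed by stopped-flow CO2 hydration using 0.2 mM phenol red at 557 nm in 20 mM Hepes pH 7.5 with 20 mM Na2SO4, CO2 1.7–17 mM. Inhibitor and enzyme preincubated 15 min at room temperature.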

hCA I = target: T2, hCA I (Homo sapiens, UniProt P00915); test: stopped flow CO2 hydrase assay; type: biochemical; details: mean from 3 assays
T2 construct: made in house
Procedure, shortened: as §1

hCA XII = target: T3, hCA XII (Homo sapiens, UniProt O43570); test: stopped flow CO2 hydrase assay; type: biochemical
T3 construct: made in house
Procedure, shortened: as §1

SF-295 = test: NCI SRB assay; type: cell-based, human
CAKI-1 = test: NCI SRB assay; type: cell-based, human
HOP-62 = test: NCI SRB assay; type: cell-based, human
SK-OV-3 = test: NCI SRB assay; type: cell-based, human
KM12 = test: NCI SRB assay; type: cell-based, human
UACC-62 = test: NCI SRB assay; type: cell-based, human
hCA II = target: T4, hCA II (Homo sapiens, UniProt P00918); test: stopped flow CO2 hydrase assay; type: biochemical; details: mean from 3 assays
T4 construct: made in house
Procedure, shortened: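 Stopped-flow CO2 hydration with phenol red (0.2 mM) at 557 nm in 20 mM Hepes pH 7.5, 20 mM Na2SO4, CO2 1.7–17 mM, recombinant enzyme. Inhibitor preincubated 15 min at room temperature; uncatalyzed rate subtracted, Ki via Cheng-Prusoff, mean of ≥3 determinations.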

NCI-H522 = test: NCI SRB assay; type: cell-based, human
HT29 = test: NCI SRB assay; type: cell-based, human
HL-60(TB) = test: NCI SRB assay; type: cell-based, human; details: HL-60(TB)
CCRF-CEM = test: NCI SRB assay; type: cell-based, human
MDA-MB-468 = test: NCI SRB assay; type: cell-based, human
SNB-75 = test: NCI SRB assay; type: cell-based, human
PC-3 = test: NCI SRB assay; type: cell-based, human
HCT-15 = test: NCI SRB assay; type: cell-based, human
SK-MEL-5 = test: NCI SRB assay; type: cell-based, human
OVCAR-3 = test: NCI SRB assay; type: cell-based, human
NCI-H226 = test: NCI SRB assay; type: cell-based, human

T3 sequence (O43570 25-354): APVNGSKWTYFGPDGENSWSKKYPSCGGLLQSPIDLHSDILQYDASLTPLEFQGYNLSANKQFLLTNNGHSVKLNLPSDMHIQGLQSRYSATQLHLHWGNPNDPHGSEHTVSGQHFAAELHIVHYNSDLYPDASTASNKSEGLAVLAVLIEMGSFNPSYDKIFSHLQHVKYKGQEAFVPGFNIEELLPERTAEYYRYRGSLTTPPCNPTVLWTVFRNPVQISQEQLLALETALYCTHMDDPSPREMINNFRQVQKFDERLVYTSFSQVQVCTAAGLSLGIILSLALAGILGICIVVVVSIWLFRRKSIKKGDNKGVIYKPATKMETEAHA
T2 sequence (P00915 whole entry): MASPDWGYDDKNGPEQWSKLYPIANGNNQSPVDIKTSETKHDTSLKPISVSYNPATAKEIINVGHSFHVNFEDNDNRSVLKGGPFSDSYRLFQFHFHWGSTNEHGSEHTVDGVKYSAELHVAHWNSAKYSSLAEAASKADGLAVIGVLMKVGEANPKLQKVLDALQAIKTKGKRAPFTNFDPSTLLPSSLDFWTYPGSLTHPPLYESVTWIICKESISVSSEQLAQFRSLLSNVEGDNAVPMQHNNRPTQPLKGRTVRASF

Cc1ccc(-c2nc(Nc3cccc(C(=O)O)c3)c3ccccc3n2)cc1 [7b, 3-((2-(p-Tolyl)quinazolin-4-yl)amino)benzoic acid]
GI% (DU-145; DU-145, 10 μM): – (Only GI% higher than 20% are shown)
Growth Percent (DU-145; DU-145, 1.00E-5 Molar): 96.55%
Selectivity ratio II/IX (hCA IX; KI hCA II / KI hCA IX): 1.72
Ki (hCA IX; mean from 3 assays): 24.2 µM
Ki (hCA I): > 100 µM
Selectivity ratio I/XII (hCA XII; KI hCA I / KI hCA XII): 109.9
Selectivity ratio II/XII (hCA XII; KI hCA II / KI hCA XII): 45.82
Ki (hCA XII; mean from 3 assays): 0.91 µM
GI% (SF-295; SF-295, 10 μM): 34%
Growth Percent (SF-295; SF-295, 1.00E-5 Molar): 65.90%
GI% (CAKI-1; CAKI-1, 10 μM): – (Only GI% higher than 20% are shown)
Growth Percent (CAKI-1; CAKI-1, 1.00E-5 Molar): 82.90%
GI% (HOP-62; HOP-62, 10 μM): – (Only GI% higher than 20% are shown)
Growth Percent (HOP-62; HOP-62, 1.00E-5 Molar): 84.19%
GI% (SK-OV-3; SK-OV-3, 10 μM): – (Only GI% higher than 20% are shown)
Growth Percent (SK-OV-3; SK-OV-3, 1.00E-5 Molar): 89.56%
GI% (KM12; KM12, 10 μM): 32%
Growth Percent (KM12; KM12, 1.00E-5 Molar): 68.03%
GI% (UACC-62; UACC-62, 10 μM): – (Only GI% higher than 20% are shown)
Growth Percent (UACC-62; UACC-62, 1.00E-5 Molar): 87.74%
Ki (hCA II): 41.7 µM
GI% (NCI-H522; NCI-H522, 10 μM): – (Only GI% higher than 20% are shown)
Growth Percent (NCI-H522; NCI-H522, 1.00E-5 Molar): 86.87%
GI% (HT29; HT29, 10 μM): – (Only GI% higher than 20% are shown)
Growth Percent (HT29; HT29, 1.00E-5 Molar): 105.90%
GI% (HL-60(TB); 10 μM): – (Only GI% higher than 20% are shown)
Growth Percent (HL-60(TB); 1.00E-5 Molar): 85.11%
GI% (CCRF-CEM; 10 μM): 21%
Growth Percent (CCRF-CEM; 1.00E-5 Molar): 78.66%
GI% (MDA-MB-468; MDA-MB-468, 10 μM): – (Only GI% higher than 20% are shown)
Growth Percent (MDA-MB-468; MDA-MB-468, 1.00E-5 Molar): 116.40%
GI% (SNB-75; SNB-75, 10 μM): – (Only GI% higher than 20% are shown)
Growth Percent (SNB-75; SNB-75, 1.00E-5 Molar): 91.06%
GI% (PC-3; PC-3, 10 μM): – (Only GI% higher than 20% are shown)
Growth Percent (PC-3; PC-3, 1.00E-5 Molar): 80.52%
GI% (HCT-15; HCT-15, 10 μM): 55%
Growth Percent (HCT-15; HCT-15, 1.00E-5 Molar): 45.38%
GI% (SK-MEL-5; SK-MEL-5, 10 μM): – (Only GI% higher than 20% are shown)
Growth Percent (SK-MEL-5; SK-MEL-5, 1.00E-5 Molar): 85.67%
GI% (OVCAR-3; OVCAR-3, 10 μM): – (Only GI% higher than 20% are shown)
Growth Percent (OVCAR-3; OVCAR-3, 1.00E-5 Molar): 85.56%
GI% (NCI-H226; NCI-H226, 10 μM): 25%
Growth Percent (NCI-H226; NCI-H226, 1.00E-5 Molar): 75.32%
